Assay results: patent US20110065672A1, “BISPHOSPHONATE-PROSTATIC ACID PHOSPHATASE INHIBITOR CONJUGATES TO TREAT PROSTATE CANCER BONE METASTASIS” (MOUNT SINAI SCHOOL OF MEDICINE OF NEW YORK UNIVERSITY, priority 2009, published 2011)

Tests used:
[1] = target: T1, prostatic acid phosphatase (PAP) (Homo sapiens, UniProt P15309); assay: PAP secretion in VCaP cell culture with conjugates, ELISA; type: cell-based; conditions: overnight; for inhibition of PAP secretion: 0.1 mM or 1.0 mM in VCaP cell culture medium
T1 construct: endogenous in cells; host or cells: VCaP (human prostate cancer cell line); in A3 also MC3T3 pre-osteoblasts, alone or in co-culture
T1 sequence (P15309 33-386): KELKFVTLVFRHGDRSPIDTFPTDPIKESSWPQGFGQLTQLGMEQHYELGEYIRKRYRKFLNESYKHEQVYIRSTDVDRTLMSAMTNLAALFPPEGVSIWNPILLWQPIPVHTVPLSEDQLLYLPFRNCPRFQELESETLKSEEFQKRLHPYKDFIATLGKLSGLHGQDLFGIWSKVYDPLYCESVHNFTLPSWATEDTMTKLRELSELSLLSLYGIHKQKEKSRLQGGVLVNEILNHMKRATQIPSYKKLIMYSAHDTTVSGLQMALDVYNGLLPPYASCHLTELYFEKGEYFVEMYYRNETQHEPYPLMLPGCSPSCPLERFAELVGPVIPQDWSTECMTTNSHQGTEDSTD
Description: Either the glyceric acid conjugate (i.e., N-Alendronyl-D-Glyceramide) (example 1, 0.1 mM or 1.0 mM) or the tartaric acid conjugate (i.e., N-Alendronyl-L-Tartaric Acid Monamide) (example 2, 0.1 mM or 1.0 mM) was added to VCaP cell culture medium, and incubated overnight. PAP secretion was measured using an ELISA assay.

MC3T3 cells = assay: Growth of MC3T3 pre-osteoblast cells, single line or co-culture, counted by hemacytometer; type: cell-based; conditions: tartrate 20 μM, 7 days, serum free medium
Description: (§1) The human prostate cancer cell line VCaP (originally derived from a vertebral metastases) and the pre-osteoblast cell line MC3T3, were used to for in vitro studies with tartrate. Each cell culture was grown in serum free medium either in single line or co-culture, and treated with or without tartrate (20 μM) for 7 days. Cell numbers were counted by a hemacytometer and the secretion of PAP and bone alkaline phosphatase (ALP) was measured using ELISA.

VCaP cells = assay: Growth of VCaP prostate cancer cells, single line or co-culture, counted by hemacytometer; type: cell-based, human; conditions: tartrate 20 μM, 7 days, serum free medium
Description: as §1

[2] = target: T1, prostatic acid phosphatase (PAP); assay: Secretion of PAP from MC3T3 and VCaP single line and co-cultures, ELISA; type: cell-based; conditions: tartrate 20 μM, 7 days
Description: as §1

[3] = tested on: prostatic acid phosphatase (PAP); assay: as above; type: cell-based, human; conditions: tartrate 20 μM, 7 days, MC3T3 cells (very low PAP levels)
Description: as §1

[4] = tested on: bone alkaline phosphatase (ALP); assay: Secretion of bone alkaline phosphatase (ALP), ELISA; type: cell-based; conditions: tartrate 20 μM, 7 days
Description: as §1
Secretion of bone alkaline phosphatase (ALP) by pre-osteoblast cells is correlated with pre-osteoblast differentiation into mature osteoblasts cells. Accordingly, ALP secretion was measured to indirectly determine whether the inhibition of PAP secretion by tartrate also served to attenuate differentiation events. […] This effect was not seen in the single line MC3T3 and VCaP cell cultures.

RAW cells [5] = assay: RAW pre-osteoclast cell growth in co-culture experiments, hemacytometer; type: cell-based; conditions: tartrate (2004) for 2 days
Description: (§2) In order to determine the effects of prostatic acid phosphatase (PAP) on osteoclast differentiation and activity, a series of co-culture experiments were performed in which pre-osteoclast cells (RAW cells) were co-cultured with either PAP-positive (PAP^+), VCaP cells or PAP-negative (PAP^−) (PC3) human prostate cancer (PCa) cells. RAW cells were counted in a hemacytometer on day 5.
(§3) VCaP (PAP^+) and PC3 (PAP^−) cells (5×10^4 each) were seeded on inserts in RPMI or DMEM medium with 10% FBS. Pre-osteoclast, PRAW cells (5×10^4) were plated on the bottom in 12 well plates. After 2 days, medium was changed to serum-free DMEM with 0.1% BSA+/− tartrate (2004) for 2 days. Mean number of multinucleated cells (hallmark of osteoclast differentiation) was determined on day 5 by multiple field counts in 200× objective view.

RAW cells [6] = assay: RAW cell differentiation, mean number of multinucleated cells; type: cell-based; conditions: tartrate (2004) for 2 days
Description: as §2, §3

RAW (osteoclast) cells = assay: Osteoclast bone-resorbing activity, pit formation on osteologic discs; type: cell-based; conditions: tartrate 20 μM, 7 days, RANKL and MCSF
Description: The effect of PAP on osteoclast bone-resorbing activity was measured by assaying pit formation when osteoclasts were cultured on bone matrix (osteologic discs). RAW (osteoclast) cells (2×10^4 cells), PC3 (PAP^−) cells (2×10^4 cells), and VCaP (PAP^+) cells (3×10^4 cells) were plated, alone or in combination, on calcium hydroxyapatite-coated osteologic discs in DMEM medium with 10% FBS for 7 days+/−tartrate (20 μM). All cultures were treated with RANKL ([…]) and MCSF ([…]). On day 7, cells were washed and discs stained with von Kossa to visualize the calcium matrix and pits (which indicate bone resorption by the RAW osteoclast cells).

PAP = target: T2, PAP (Homo sapiens, UniProt P15309); conditions: see U.S. Pat. No. 5,763,490; cited from earlier work
T2 sequence (P15309 33-386): T1 sequence (P15309 33-386)

bone acid phosphatase = target: T3, bone acid phosphatase (Homo sapiens, UniProt P13686); conditions: cited from earlier work
T3 sequence (P13686 22-325): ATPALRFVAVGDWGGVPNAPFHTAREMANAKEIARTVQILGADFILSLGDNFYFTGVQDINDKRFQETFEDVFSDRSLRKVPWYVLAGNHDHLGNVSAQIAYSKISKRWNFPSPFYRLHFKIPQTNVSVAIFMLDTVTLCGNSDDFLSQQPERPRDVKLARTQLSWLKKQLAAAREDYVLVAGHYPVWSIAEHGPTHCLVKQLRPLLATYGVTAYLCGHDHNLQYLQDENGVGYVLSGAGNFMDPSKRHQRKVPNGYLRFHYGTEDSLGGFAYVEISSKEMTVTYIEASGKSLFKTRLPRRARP

O=C(NCCCC(O)(P(=O)(O)O)P(=O)(O)O)[C@H](O)CO [example 1, N-Alendronyl-D-Glyceramide]
inhibition of PAP secretion [1]: significantly inhibited
effectiveness as a PAP inhibitor compared with tartrate alone ([1]; VCaP cell culture medium): as effective as tartrate alone

O=C(O)C(O)[C@H](O)C(=O)NCCCC(O)(P(=O)(O)O)P(=O)(O)O (stereo partly drawn) [example 2, N-Alendronyl-L-Tartaric Acid Monamide]
inhibition of PAP secretion [1]: inhibit PAP secretion

O=C(O)[C@H](O)[C@@H](O)C(=O)O [tartrate, L-tartrate]
effect on growth of MC3T3 cells co-cultured with VCaP cells (MC3T3 cells; co-culture with VCaP, p<0.01): significantly inhibited
effect on growth of MC3T3 single line cell culture (MC3T3 cells; single line): did not have a significant effect
effect on VCaP cell growth when co-cultured with MC3T3 cells (VCaP cells; co-culture with MC3T3): did not have a significant effect
effect on growth of VCaP single line cell culture (VCaP cells; single line): did not have a significant effect
prostatic acid phosphatase secretion by VCaP cells grown alone ([2]; VCaP alone): significantly inhibited
prostatic acid phosphatase secretion by VCaP cells in co-culture with MC3T3 cells ([2]; co-culture with MC3T3): significantly inhibited
PAP secretion by MC3T3 cells [3]: did not inhibit
bone alkaline phosphatase secretion by MC3T3 cells in co-culture with VCaP cells ([4]; co-culture with VCaP): significantly inhibited
bone alkaline phosphatase secretion, single line MC3T3 cell culture ([4]; single line MC3T3): not seen
bone alkaline phosphatase secretion, single line VCaP cell culture ([4]; single line VCaP): not seen
effect on growth of RAW cells co-cultured with PC3 cells (RAW cells [5]; counted day 5, co-culture with PC3 (PAP-)): did not have a significant effect
effect on growth of RAW cells co-cultured with VCaP cells (RAW cells [5]; counted day 5, co-culture with VCaP (PAP+), p<0.01): significantly inhibited
effect on growth of RAW cells alone (RAW cells [5]; serum-free DMEM with 0.1% BSA, counted day 5, RAW alone): did not have a significant effect
effect on differentiation of RAW cells alone (RAW cells [6]; multinucleated cells on day 5, RAW alone): did not have a significant effect
effect on differentiation of RAW cells co-cultured with PC3 cells (RAW cells [6]; multinucleated cells on day 5, co-culture with PC3): did not have a significant effect
effect on RAW cell differentiation when co-cultured with VCaP (RAW cells [6]; multinucleated cells on day 5, co-culture with VCaP, p<0.01): significantly inhibited
decrease of pit formation, RAW cells co-cultured with VCaP (RAW (osteoclast) cells): 50%
effect on number of pits, RAW cells co-cultured with PC3 cells (RAW (osteoclast) cells): no significant effect
inhibition of PAP (PAP): inhibited
inhibition of bone acid phosphatase (bone acid phosphatase): is not
